ChEMBL document CHEMBL1914391, “Design and synthesis of biotinylated inositol 1,3,4,5-tetrakisphosphate targeting Grp1 pleckstrin homology domain” (Bioorg Med Chem, 2011)
pKd: −log10 of the molar value.

How the values were obtained:
Cytohesin-3 [1] = target: T1, Cytohesin-3 (Rattus norvegicus, UniProt P97696); experiment: Binding affinity to recombinant rat brain Grp1 PH domain (amino acids 1 to 120) by SPR analysis
T1 sequence (P97696 whole entry): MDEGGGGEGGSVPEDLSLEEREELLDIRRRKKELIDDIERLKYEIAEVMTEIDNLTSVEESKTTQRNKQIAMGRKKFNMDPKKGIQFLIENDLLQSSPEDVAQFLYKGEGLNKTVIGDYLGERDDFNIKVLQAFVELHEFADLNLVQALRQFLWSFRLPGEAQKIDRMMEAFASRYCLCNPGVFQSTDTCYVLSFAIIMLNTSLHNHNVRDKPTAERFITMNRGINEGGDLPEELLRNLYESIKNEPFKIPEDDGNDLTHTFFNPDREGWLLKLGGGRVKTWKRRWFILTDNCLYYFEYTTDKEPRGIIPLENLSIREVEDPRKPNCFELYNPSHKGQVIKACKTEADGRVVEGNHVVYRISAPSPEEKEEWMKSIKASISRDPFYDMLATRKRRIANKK

[2] = target: T2, 1-phosphatidylinositol 4,5-bisphosphate phosphodiesterase delta-1 (Homo sapiens, UniProt P51178); experiment: Binding affinity to PLCdelta1 PH domain
T2 sequence (P51178 whole entry): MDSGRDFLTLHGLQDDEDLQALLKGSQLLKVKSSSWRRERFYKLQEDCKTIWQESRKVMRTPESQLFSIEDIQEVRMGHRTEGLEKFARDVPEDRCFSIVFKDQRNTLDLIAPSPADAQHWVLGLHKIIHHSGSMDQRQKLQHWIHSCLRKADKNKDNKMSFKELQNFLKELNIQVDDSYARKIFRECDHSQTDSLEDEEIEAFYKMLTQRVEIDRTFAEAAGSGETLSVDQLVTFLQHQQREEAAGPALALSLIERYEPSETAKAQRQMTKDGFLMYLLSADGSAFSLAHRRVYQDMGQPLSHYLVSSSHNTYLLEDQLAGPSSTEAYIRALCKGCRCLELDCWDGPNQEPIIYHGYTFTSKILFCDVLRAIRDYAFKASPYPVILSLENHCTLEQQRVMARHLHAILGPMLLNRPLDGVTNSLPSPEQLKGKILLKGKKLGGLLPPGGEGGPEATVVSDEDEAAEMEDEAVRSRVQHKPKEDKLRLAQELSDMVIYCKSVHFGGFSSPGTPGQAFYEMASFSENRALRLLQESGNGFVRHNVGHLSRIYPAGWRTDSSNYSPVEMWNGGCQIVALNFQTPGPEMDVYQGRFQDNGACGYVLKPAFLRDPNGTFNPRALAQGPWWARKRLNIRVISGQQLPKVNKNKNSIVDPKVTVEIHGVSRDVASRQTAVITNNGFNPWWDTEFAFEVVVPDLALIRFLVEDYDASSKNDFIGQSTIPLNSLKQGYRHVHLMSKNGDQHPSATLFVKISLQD

[3] = target: T3, 1-phosphatidylinositol 4,5-bisphosphate phosphodiesterase delta-1 (Rattus norvegicus, UniProt P10688); experiment: Binding affinity to recombinant rat brain PLCdelta1 PH domain (amino acids 11 to 140) by SPR analysis
T3 sequence (P10688 whole entry): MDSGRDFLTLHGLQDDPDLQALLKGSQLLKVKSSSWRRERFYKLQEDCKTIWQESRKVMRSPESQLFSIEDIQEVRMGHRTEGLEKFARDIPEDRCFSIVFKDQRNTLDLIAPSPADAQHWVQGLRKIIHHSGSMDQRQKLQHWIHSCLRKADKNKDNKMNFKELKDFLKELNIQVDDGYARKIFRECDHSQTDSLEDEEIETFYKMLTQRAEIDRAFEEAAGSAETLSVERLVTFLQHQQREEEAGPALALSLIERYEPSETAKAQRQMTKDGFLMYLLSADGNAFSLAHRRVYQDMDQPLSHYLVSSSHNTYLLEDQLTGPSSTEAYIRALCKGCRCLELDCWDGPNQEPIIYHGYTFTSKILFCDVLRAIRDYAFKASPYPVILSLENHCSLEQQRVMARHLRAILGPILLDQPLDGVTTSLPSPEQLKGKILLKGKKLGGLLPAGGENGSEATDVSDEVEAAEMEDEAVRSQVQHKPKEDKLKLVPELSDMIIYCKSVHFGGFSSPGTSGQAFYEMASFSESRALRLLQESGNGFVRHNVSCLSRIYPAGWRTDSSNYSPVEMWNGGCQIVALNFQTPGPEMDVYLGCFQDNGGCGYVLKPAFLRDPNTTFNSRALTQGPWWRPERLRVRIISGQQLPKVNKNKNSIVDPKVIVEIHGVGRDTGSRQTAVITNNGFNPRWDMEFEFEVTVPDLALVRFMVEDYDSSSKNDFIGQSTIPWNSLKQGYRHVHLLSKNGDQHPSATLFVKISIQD

Cytohesin-3 [4] = target: T1, Cytohesin-3; experiment: Binding affinity to recombinant rat brain Grp1 PH domain (amino acids 1 to 120) after 10 mins by pull-down assay

Compound | pKd (Cytohesin-3 [1]) | pKd [2] | pKd [3] | pKd (Cytohesin-3 [4])
O=C(CCCC[C@@H]1SC[C@@H]2NC(=O)N[C@@H]21)NCCCCCCOP(=O)(O)O[C@H]1[C@H](O)[C@@H](OP(=O)(O)O)[C@H](OP(=O)(O)O)[C@@H](OP(=O)(O)O)[C@H]1O | 6.52 | 6.60 | < 5.30 | 6.85
O=C(CCCC[C@@H]1SC[C@@H]2NC(=O)N[C@@H]21)NCCCCCCOP(=O)(O)O[C@@H]1[C@@H](O)[C@H](OP(=O)(O)O)[C@@H](OP(=O)(O)O)[C@H](O)[C@@H]1O | < 6.00 |  | < 5.30 | 
O=P(O)(O)O[C@H]1[C@H](O)[C@@H](OP(=O)(O)O)[C@H](OP(=O)(O)O)[C@@H](OP(=O)(O)O)[C@H]1O |  |  |  | 7.00
O=C(CCCC[C@@H]1SC[C@@H]2NC(=O)N[C@@H]21)NCCCCCCOP(=O)(O)O[C@@H]1[C@H](O)[C@H](O)[C@@H](OP(=O)(O)O)[C@H](OP(=O)(O)O)[C@H]1O | < 6.00 |  | 5.66 | 
